How the values were obtained:
[1] = Inhibition of YTHDF (unknown origin); set-up: species or system Homo sapiens
[2] = target: T1, YTH domain-containing family protein 2 (Homo sapiens, UniProt Q9Y5A9); assay: Inhibition of YTHDF2 YTH domain (unknown origin) (383 to 579 residues) expressed as Escherichia coli BL21 (DE3) Rosetta cells by HTFR based binding assay
T1 sequence (Q9Y5A9 whole entry): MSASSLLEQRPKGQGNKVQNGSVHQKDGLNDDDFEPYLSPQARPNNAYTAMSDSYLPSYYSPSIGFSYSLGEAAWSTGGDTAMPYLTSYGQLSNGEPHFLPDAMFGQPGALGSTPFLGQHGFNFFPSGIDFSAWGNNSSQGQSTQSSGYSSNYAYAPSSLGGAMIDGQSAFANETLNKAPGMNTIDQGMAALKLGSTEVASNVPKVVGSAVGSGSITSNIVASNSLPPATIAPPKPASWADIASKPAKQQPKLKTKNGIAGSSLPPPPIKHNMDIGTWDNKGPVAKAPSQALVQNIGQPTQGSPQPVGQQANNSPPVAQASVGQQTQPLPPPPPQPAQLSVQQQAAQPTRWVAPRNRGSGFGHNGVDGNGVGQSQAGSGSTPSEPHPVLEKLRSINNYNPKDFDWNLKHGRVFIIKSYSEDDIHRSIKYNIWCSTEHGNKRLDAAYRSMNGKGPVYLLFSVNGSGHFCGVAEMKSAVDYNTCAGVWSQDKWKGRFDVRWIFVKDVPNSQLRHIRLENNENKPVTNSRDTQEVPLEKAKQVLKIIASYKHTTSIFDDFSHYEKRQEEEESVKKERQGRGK

Row | SMILES | EC50 [1] [µM] | IC50 [2] [µM]
1 | O=c1c2ccccc2sn1CCN1CCOCC1 | 2.83 | –
2 | Cn1c(=O)cc(C2CC2)[nH]c1=O | – | 161
3 | CCN(CC)CCn1sc2ccccc2c1=O | 1.69 | –
4 | O=c1cc(C2CC2)[nH]c(=O)[nH]1 | – | 410
5 | CNc1ncnc2c(-c3ccccc3)[nH]nc12 | – | 491
6 | O=c1c2ccccc2[se]n1-c1ccccc1 [EBSELEN] | 1.5 | –
7 | CNc1ncnc2c(C)[nH]nc12 | – | 174
